For five compounds, change in vivo results are on record in EP0249301A1, “Pyrido[2,3-b]indoles” (BEECHAM GROUP PLC, priority 1986, dated 1987).

SMILES strings stand for the structures.

This experiment deals with Rats. Nature of the experiment: Geller-Seifter procedure (conflict test for anxiolytic properties). In kind it is in vivo. To be noted: Rattus norvegicus, 0.5 h; dose 50 mg/kg po, 30 min before testing; percentage increase in square root of total lever presses in the FR5 'conflict' session; read-out: increase in responding in the 'conflict' session. The procedure: Potential anxiolytic properties have been evaluated using the Geller-Seifter procedure based on that originally described by Geller and Seifter, (1960) Psychopharmacologia, 1, 482-492.
Rats are trained on a variable interval 30 sec schedule (VI30) to press a lever in order to obtain food reward. The 5 min sessions of the V130 schedule alternate with 2-5 min of a schedule (FR5) in which every 5th lever press is followed by presentation of a food pellet paired with a 0.5 sec mild footshock. The total study lasts approximately 30 mins. Rats typically respond with high rates of lever pressing under the VI30 schedule and low response rats under the Fx5 'conflict' session. Anxiolytic drugs increase the suppressed response rates of rats in 'conflict' session.
Drugs are administered intraperitoneally or orally to groups of 3-8 rats 30 min before testing.
The results are expressed as the percentage increase in square root of the total number of lever presses in the FR5 'conflict' session. Square root transformation is necessary to normalise the data for statistical analysis using parametric methods.
For the compound `CNc1c(C(=O)OC)c(C)nc2c1c1ccccc1n2C` [Example 8, 2,9-Dimethyl-4-methylamino-9H-pyrido[2,3-b]indole-3-carboxylic acid, methyl ester], the change in vivo at 50 mg/kg stood at 112%.

`C=CCOC(=O)c1c(C)nc2c(c1N)c1ccccc1n2C` [Example 11, 4-Amino-2,9-dimethyl-9H-pyrido[2,3-b]indole-3-carboxylic acid, 2-propenyl ester]: the change in vivo at 50 mg/kg came out at 138%.

Regarding `CCCOC(=O)c1c(C)nc2c(c1N)c1ccccc1n2C` [Example 24, 4-Amino-2,9-dimethyl-9H-pyrido[2,3,b]indole-3-carboxylic acid, n-propyl ester], the change in vivo at 50 mg/kg was found to be 78%.

As to `C#CCOC(=O)c1c(C)nc2c(c1N)c1ccccc1n2C` [Example 14, 4-Amino-2,9-dimethyl-9H-pyrido[2,3-b]indole-3-carboxy-lie acid, 2-propynyl ester], the change in vivo at 50 mg/kg is 102%.

With `COC(=O)c1c(C)nc2[nH]c3ccccc3c2c1N` [Example 1, 4-Amino-2-methyl-9H-pyrido[2,3-b]indole-3-carboxylic acid, methyl ester], the change in vivo at 50 mg/kg stood at 143%.
